Results: PMC6302903, “Protein and Chemical Determinants of BL-1249 Action and Selectivity for K2P Channels” (ACS Chemical Neuroscience, 2018)

Assays:
Assay type in all cases: cell-based
[1] = target: T1, K2P4.1(TRAAK) (Mus musculus, UniProt O88454); experiment: TEVC of K2P4.1(TRAAK) in Xenopus oocytes
T1 construct: expressed in transfected cells; host or cells: Xenopus laevis oocytes injected with mRNA made from pGEMHE/pMO
T1 sequence (O88454 1-398): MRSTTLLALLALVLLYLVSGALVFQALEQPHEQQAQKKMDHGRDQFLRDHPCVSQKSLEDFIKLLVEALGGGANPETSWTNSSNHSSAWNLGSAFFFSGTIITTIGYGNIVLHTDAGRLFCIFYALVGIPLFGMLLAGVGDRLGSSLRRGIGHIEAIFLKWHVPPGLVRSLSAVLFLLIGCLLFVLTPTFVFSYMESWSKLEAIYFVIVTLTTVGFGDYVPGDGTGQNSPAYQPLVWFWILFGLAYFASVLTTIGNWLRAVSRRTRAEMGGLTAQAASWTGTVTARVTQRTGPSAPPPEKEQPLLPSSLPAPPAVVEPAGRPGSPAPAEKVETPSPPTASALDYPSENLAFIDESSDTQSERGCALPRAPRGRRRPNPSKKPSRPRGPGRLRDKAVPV
Text: Constructs for murine K2P channels, including K2P2.1(TREK-1) (Gene ID 16526), K2P10.1(TREK-2) (Gene ID 72258), K2P4.1(TRAAK) (Gene ID 16528), K2P5.1(TASK-2) (Gene ID 16529), K2P3.1(TASK-1) (Gene ID 16527), K2P9.1(TASK-3) (Gene ID 223604), and K2P18.1(TRESK) (Gene ID 332396) in pGEMHE/pMO, were used for Xenopus oocyte experiments as previously described.[10],[26] Murine K2P2.1(TREK-1) (Gene ID 16526) was expressed in HEK-293 cells using a pIRES-EGFP construct as previously described.[26] Murine K2P13.1(THIK-1) (Gene ID 217826) and K2P1.1(TWIK-1) (Gene ID 16525) were cloned into pGEMHE/pMO for use in Xenopus oocytes. Chimeras were designed using EMBOSS Needle pairwise sequence alignment tool[58] to match homologous helices in K2P2.1(TREK-1) and K2P4.1(TRAAK) and were assembled using the Gibson assembly method.[59] Chimera boundaries are Thr152 (TREK-1/AAK M2-C), Trp199 (TREK-1/AAK M3-C), Y272 (TREK-1/AAK M4-C), Thr114 (TRAAK/EK-1 M2-C), Trp161 (TRAAK/EK-1 M3-C), and Tyr234 K2P4.1(TRAAK). All sequences were verified using DNA sequencing.
Xenopus laevis oocytes were harvested in accordance with UCSF IACUC protocol AN129690 and digested in calcium-free ND-96 (96 mM NaCl, 2 mM KCl, 3.8 mM MgCl2) immediately following harvest, as previously described.[6],[10] Digested oocytes were maintained in standard ND96 (96 mM NaCl, 2 mM KCl, 1.8 mM CaCl2, 2 mM MgCl2) with antibiotics (100 units mL^–1 penicillin, 100 μg mL^–1 streptomycin, 50 μg mL^–1 gentimycin). Defolliculated stage V–VI oocytes were injected with 0.2–6.0 ng of mRNA in 50 nL, and currents were recorded 24–48 h after injection. mRNA was synthesized from plasmid DNA using mMessage mMachine Kit (T7 promoter, Ambion, Life Technologies) and purified using RNEasy Kit (Qiagen). Injected oocytes were impaled with two standard microelectrodes (0.2–1.0 MΩ) filled with 3 M KCl and subjected to constant perfusion of standard ND96 during recording. Currents were amplified using the GeneClamp 500B (MDS Analytical Technologies) amplifier controlled by the pClamp software (Molecular Devices). Data were digitized at 1 kHz using Digidata 1332A (MDS Analytical Technologies). For all experiments with small molecules, basal currents were evoked using 1 s long ramps from −150 to +50 mV under constant perfusion of ND96. Once stabilized basal currents were recorded, compounds were perfused at various concentrations in standard ND96 and currents were allowed to increase to stabilization before recording final current. Fold activation upon compound application is expressed as I/I0 (0 mV), derived from the current at 0 mV in the presence of compound divided by the basal current at 0 mV in standard ND96 without compound. Data were analyzed and plotted using Graphpad Prism Version 5 (GraphPad Software, San Diego California USA, www.graphpad.com). […] In the case of BL-1249-acid EC50 estimation, upper bound of I/I0 was set to 20 to account for the strong stimulation of BL-1249-acid.

[2] = target: T2, K2P1.1(TWIK-1) (Mus musculus, UniProt O08581); experiment: TEVC of K2P1.1(TWIK-1) in Xenopus oocytes; conditions: concentrations up to the solubility limit (∼80 μM)
T2 construct: expressed in transfected cells; host or cells: Xenopus laevis oocytes injected with mRNA made from pGEMHE/pMO
Procedure: (§1) BL-1249 activates K2P2.1(TREK-1)[18],[40] and K2P10.1(TREK-2),[7] but its effects on other K2P channels have not been characterized. […] In order to test if the original 10 μM assay had missed BL-1249 effects in other K2P channels, we tested concentrations of BL-1249 up to the solubility limit (∼80 μM) against the other K2P subfamily representatives. […]
(§2) Xenopus laevis oocytes were harvested in accordance with UCSF IACUC protocol AN129690 and digested in calcium-free ND-96 (96 mM NaCl, 2 mM KCl, 3.8 mM MgCl2) immediately following harvest, as previously described.[6],[10] […] Defolliculated stage V–VI oocytes were injected with 0.2–6.0 ng of mRNA in 50 nL, and currents were recorded 24–48 h after injection. mRNA was synthesized from plasmid DNA using mMessage mMachine Kit (T7 promoter, Ambion, Life Technologies) and purified using RNEasy Kit (Qiagen). […] Once stabilized basal currents were recorded, compounds were perfused at various concentrations in standard ND96 and currents were allowed to increase to stabilization before recording final current. Fold activation upon compound application is expressed as I/I0 (0 mV), derived from the current at 0 mV in the presence of compound divided by the basal current at 0 mV in standard ND96 without compound. Data were analyzed and plotted using Graphpad Prism Version 5 (GraphPad Software, San Diego California USA, www.graphpad.com). […]

[3] = target: T3, K2P18.1(TRESK) (Mus musculus, UniProt Q6VV64); experiment: TEVC of K2P18.1(TRESK) in Xenopus oocytes; conditions: concentrations up to the solubility limit (∼80 μM)
T3 construct: expressed in transfected cells; host or cells: Xenopus laevis oocytes (mRNA injection, pGEMHE/pMO)
Procedure: as §1, §2

[4] = target: TREK-1/AAK_T (Mus musculus, UniProt P97438); experiment: TEVC of C-terminal tail swap chimera TREK-1/AAK_T; conditions: Xenopus oocytes
Text: Given the importance of the C-terminal tail for the BL-1249 response and the fact that the C-terminal tails of K2P2.1(TREK-1) and K2P4.1(TRAAK) vary substantially (17.6% sequence similarity, 13.5% identity), we wondered if these differences could contribute to the different potencies observed in K2P2.1(TREK-1) and K2P4.1(TRAAK) BL-1249 responses. To test this possibility, we made chimeras that swapped the C-terminal tail between K2P2.1(TREK-1) and K2P4.1(TRAAK), TREK-1/AAK_T and TRAAK/EK_T. […] Despite this modest change, it is clear that the C-terminal tail alone is not sufficient to endow the K2P4.1(TRAAK) core with a K2P2.1(TREK-1)-like BL-1249 response. […]
as §2, with “current.” for “current. Fold activation upon compound application is expressed as I/I0 (0 mV), derived from the current at 0 mV in the presence of compound divided by the basal current at 0 mV in standard ND96 without compound. Data were analyzed and plotted using Graphpad Prism Version 5 (GraphPad Software, San Diego California USA, www.graphpad.com).”

Sequence of TREK-1/AAK_T (P97438 1-292 isoform P97438-2 limits assumed): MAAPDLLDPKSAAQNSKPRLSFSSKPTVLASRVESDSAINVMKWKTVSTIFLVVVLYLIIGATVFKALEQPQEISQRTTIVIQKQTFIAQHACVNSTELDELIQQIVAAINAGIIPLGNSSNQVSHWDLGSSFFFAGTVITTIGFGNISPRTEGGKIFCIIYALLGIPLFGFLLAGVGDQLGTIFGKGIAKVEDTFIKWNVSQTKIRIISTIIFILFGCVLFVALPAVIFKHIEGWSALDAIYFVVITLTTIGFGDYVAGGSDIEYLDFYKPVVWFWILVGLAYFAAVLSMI
T3 sequence (Q6VV64 whole entry): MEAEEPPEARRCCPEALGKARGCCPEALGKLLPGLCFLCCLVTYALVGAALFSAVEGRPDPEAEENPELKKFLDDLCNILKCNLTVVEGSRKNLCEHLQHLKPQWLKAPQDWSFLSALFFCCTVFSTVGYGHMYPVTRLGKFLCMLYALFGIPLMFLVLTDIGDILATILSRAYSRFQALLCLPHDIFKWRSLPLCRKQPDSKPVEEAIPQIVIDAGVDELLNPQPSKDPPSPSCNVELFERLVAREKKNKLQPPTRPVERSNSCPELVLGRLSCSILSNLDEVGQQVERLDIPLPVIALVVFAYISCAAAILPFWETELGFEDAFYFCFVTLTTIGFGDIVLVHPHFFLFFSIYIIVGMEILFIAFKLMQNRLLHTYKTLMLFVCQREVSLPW
T2 sequence (O08581 whole entry): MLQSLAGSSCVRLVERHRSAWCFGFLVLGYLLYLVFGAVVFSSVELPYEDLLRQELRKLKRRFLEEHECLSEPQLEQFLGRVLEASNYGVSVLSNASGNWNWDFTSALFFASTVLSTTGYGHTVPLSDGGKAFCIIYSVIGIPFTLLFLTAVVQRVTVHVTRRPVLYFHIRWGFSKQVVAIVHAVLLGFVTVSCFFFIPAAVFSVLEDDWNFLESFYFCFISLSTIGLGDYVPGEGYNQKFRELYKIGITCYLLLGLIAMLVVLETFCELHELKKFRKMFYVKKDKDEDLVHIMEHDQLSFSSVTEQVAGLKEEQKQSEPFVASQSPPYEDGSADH

## c1ccc(-c2nnn[nH]2)c(Nc2cccc3c2CCCC3)c1 [BL-1249, (5,6,7,8-tetrahydro-naphthalen-1-yl)-[2-(1H-tetrazol-5-yl)-phenyl]-amine]
[1]
  selectivity for K2P2.1(TREK-1) and K2P10.1(TREK-2) over K2P4.1(TRAAK) (EC50): ~10 fold
[1]; 10 μM
  K2P4.1(TRAAK) current response: weakly stimulated
[1]; saturation not reached (solubility limit), fit with upper boundary of 15 (I/I0)
  EC50: 48 ± 10 µM
[2]
  activation of K2P1.1(TWIK-1): failed to find evidence for activation
[3]
  activation of K2P18.1(TRESK): failed to find evidence for activation
[4]
  EC50: 7.7 ± 0.6 µM
